System: Dog Coronary Artery
Assay: Dog coronary artery test: relaxation of KCl-contracted coronary artery rings
Assay type: cell-based
Conditions: coronary artery rings contracted with 50 mM KCl, 37° C., IC50 = 50% relaxation, mean values, probit analysis; for IC50: Canis lupus familiaris
Procedure: Mongrel dogs of either sex and weighing 15 to 30 kg were anesthetized with pentobarbital (35 mg/kg). Each heart was quickly removed through a right thoracotomy and placed in Kreb's bicarbonate solution of the following composition (mM/L): NaCl, 118.2; KCl, 4.6; CaCl2.2H2 O, 1.6; KH2 PO4, 1.2; MgSO4.7H2 O, 1.2; NaHCO3, 24.8; and dextrose, 10.0. The medium was kept at room temperature and saturated with 95% O2 /5% CO2. The left anterior descending and circumflex coronary arteries were isolated and used either immediately or stored overnight at 5° C. Arteries were cut into rings approximately 2 to 3 mm wide, placed on 2 L-shaped hooks and mounted in a 10 ml organ bath by attaching one hook to a stationary glass rod and the other hook to a force-displacement transducer. Tissue medium consisted of Kreb's bicarbonate solution maintained at 37° C. and bubbled with 95 % O2 /5% CO2. Artery rings were equilibrated for 1-2 hours under a resting tension of 3 g. Tissue medium was then changed to one containing 50 mM KCl and 72.8 mM NaCl but otherwise identical to Kreb's bicarbonate solution. After tissues achieved a steady state contractile tension (1-2 hours) a given test agent was added to each bath and concentration-response curves determined. […] At the end of the concentration-response curve, tissue medium was changed to one identical to the 50 mM KCl buffer but containing 2.5 mM EGTA and no CaCl2.2H2 O to obtain complete relaxation of the tissue. Percent relaxation was then determined for each concentration and values producing 50% relaxation (IC50) were estimated using a probit analysis.

-log IC50 | IC50 [nM] | SMILES
7.55 |  | CCOC(=O)C1=C(C)NC(C)=C(C(=O)OCC)C1c1csc2ccncc12 [Example 5, 1,4-Dihydro-2,6-dimethyl-4-thieno[3,2-c]pyridin-3-yl-3,5-pyridinedicarboxylic acid, diethyl ester]
 | 316 | COC(=O)C1=C(C)NC(C)=C(C(=O)OCCC#N)C1c1csc2ccncc12 (stereo not drawn) [Example 34, 1,4-Dihydro-2,6-dimethyl-4-thieno[3,2-c]pyridin-3-yl-3,5-pyridinedicarboxylic acid, 2-cyanoethyl methyl ester]
6.94 |  | CCOC(=O)C1=C(C)NC(C)=C(C(=O)OCC)C1c1csc2ccncc12 [Example 52, 1,4-Dihydro-2,6-dimethyl-4-thieno[3,2-c]pyridin-3-yl-3,5-pyridinedicarboxylic acid, diethyl ester]
 | 83.2 | CCOC(=O)C1=C(C)NC(C)=C(C(=O)OCC)C1c1nccc2ccsc12 [Example 24, 1,4-Dihydro-2,6-dimethyl-4-thieno[2,3-c]pyridin-7-yl-3,5-pyridinedicarboxylic acid, diethyl ester]
 | 126 | CCOC(=O)C1=C(C)NC(C)=C(C(=O)OCC)C1c1csc2cccnc12 [Example 11, 1,4-Dihydro-2,6-dimethyl-4-thieno[3,2-b]pyridin-3-yl-3,5-pyridinedicarboxylic acid, diethyl ester]
 | 33.1 | CC[C@H](C)OC(=O)C1=C(C)NC(C)=C(C(=O)OC)C1c1csc2ccncc12 (stereo partly drawn) [Example 40, 1,4-Dihydro-2,6-dimethyl-4-thieno[3,2-c]pyridin-3-yl-3,5-pyridinedicarboxylic acid, methyl(S)-1-methylpropyl ester]
 | 501 | COCCOC(=O)C1=C(C)NC(C)=C(C(=O)OCCOC)C1c1csc2ccncc12 [Example 8, 1,4-Dihydro-2,6-dimethyl-4-thieno[3,2-c]pyridin-3-yl-3,5-pyridinedicarboxylic acid, bis(2-methoxyethyl)ester]
 | 100 | COC(=O)C1=C(C)NC(C)=C(C(=O)OCC(C)C)C1c1csc2ccncc12 (stereo not drawn) [Example 43, 1,4-Dihydro-2,6-dimethyl-4-thieno[3,2-c]pyridin-3-yl-3,5-pyridinedicarboxylic acid, methyl 2-methylpropyl ester]
7.0 |  | CCOC(=O)C1=C(C)NC(C)=C(C(=O)OCCOC)C1c1csc2cccnc12 (stereo not drawn) [Example 19, 1,4-Dihydro-2,6-dimethyl-4-thieno[3,2-]pyridin-3-yl-3,5-pyridinedicarboxylic acid, 3-ethyl 5-(2-methoxyethyl)ester]
7.1 |  | CCOC(=O)C1=C(C)NC(C)=C(C(=O)OCC)C1c1nccc2ccsc12 [Example 54, 1,4-Dihydro-2,6-dimethyl-4-thieno[2,3-c]pyridin-7-yl-3,5-pyridinedicarboxylic acid, diethyl ester]
 | 15.8 | COC(=O)C1=C(C)NC(C)=C(C(=O)OC(C)C)C1c1csc2ccncc12 (stereo not drawn) [Example 20, 1,4-Dihydro-2,6-dimethyl-4-thieno[3,2-c]pyridin-3-yl-3,5-pyridinedicarboxylic acid, 3-methyl 5-isopropyl ester]
 | 79.4 | CCOC(=O)C1=C(C)NC(C)=C(C(=O)OCC)C1c1csc2ccccc12 [Example 3, 4-Benzo[b]thien-3-yl-1,4-dihydro-2,6-dimethyl-3,5-pyridinedicarboxylic acid, diethyl ester]
 | 91.2 | C#CCOC(=O)C1=C(C)NC(C)=C(C(=O)OC)C1c1csc2ccncc12 (stereo not drawn) [Example 48, 1,4-Dihydro-2,6-dimethyl-4-thieno[3,2-c]pyridin-3-yl-3,5-pyridinedicarboxylic acid, methyl 2-propynyl ester]
 | 229 | CCOC(=O)C1=C(C)NC(C)=C(C(=O)OCC)C1c1csc2ccc([N+](=O)[O-])cc12 [Example 26, 1,4-Dihydro-2,6-dimethyl-4-(5-nitrobenzo[b]thien-3-yl)-3,5-pyridinedicarboxylic acid, diethyl ester]
 | 1070 | CCCCOC(=O)C1=C(C)NC(C)=C(C(=O)OCCCC)C1c1csc2ccncc12 [Example 53, 1,4-Dihydro-2,6-dimethyl-4-thieno[3,2-c]pyridin-3-yl-3,5-pyridinedicarboxylic acid, dibutyl ester]
 | 83.2 | CCOC(=O)C1=C(C)NC(C)=C(C(=O)OC(C)C)C1c1csc2ccncc12 (stereo not drawn) [Example 17, 1,4-Dihydro-2,6-dimethyl-4-thieno[3,2-c]pyridin-3-yl-3,5-pyridinedicarboxylic acid, 3-ethyl 5-isopropyl ester]
 | 646 | COC(=O)C1=C(C)NC(C)=C(C(=O)OC(C)(C)C)C1c1csc2ccncc12 (stereo not drawn) [Example 45, 1,4-Dihydro-2,6-dimethyl-4-thieno[3,2-c]pyridin-3-yl-3,5-pyridinedicarboxylic acid, methyl 1,1-dimethylethyl ester]
 | 398 | CC1=C(C(=O)OC(C)C)C(c2csc3ccncc23)C(C(=O)OC(C)C)=C(C)N1 [Example 7, 1,4-Dihydro-2,6-dimethyl-4-thieno[3,2-c]pyridin-3-yl-3,5-pyridinedicarboxylic acid, diisopropyl ester]
 | 10700 | CCOC(=O)C1=C(C)NC(C)=C(C(=O)OCC)C1c1cc2cnccc2s1 [Example 2, 1,4-Dihydro-2,6-dimethyl-4-(thieno[3,2-c]pyridin-2-yl)-3,5-pyridinedicarboxylic acid, diethyl ester]
 | 407 | CCOC(=O)C1=C(C)NC(C)=C(C(=O)OCC)C1c1c(C)sc2ccccc12 [Example 16, 1,4-Dihydro-2,6-dimethyl-4-(2-methylbenzo[b]thien-3-yl)-3,5-pyridinedicarboxylic acid, diethyl ester]
 | 7080 | CCOC(=O)C1=C(C)NC(C)=C(C(=O)OCC)C1c1c(Br)sc2ccccc12 [Example 23, 4-(2-Bromobenzo[b]thien-3-yl)-1,4-dihydro-2,6-dimethyl-3,5-pyridinedicarboxylic acid, diethyl ester]
